Data reported in PubChem BioAssay (NCI).
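Tested at 5 concentrations; 48 h exposure; 96-well plates; endpoints linearly interpolated, else capped at highest concentration. TGI marks complete inhibition of growth.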 Where a SMILES comes first, the peptide text is derived from it. [ ]: non-standard residue; d: D form. The star is where a group is joined. ξ: configuration not given here. NMeF = CN[CH](Cc1ccccc1)C(=O)O; ξNMe2Val = CC(C)C(C(=O)*)N(C)C; NMeV = CN[CH](C(=O)O)C(C)C; OtBu = CC(C)(C)O*

Columns and labels:
Assay in all cases: DTP human tumour cell line panel, 48 h
KM12 colon = test system: KM12 colon
SNB-19 CNS = test system: SNB-19 CNS
ACHN renal = test system: ACHN renal
EKVX NSCLC = test system: EKVX NSCLC
COLO 205 colon = test system: COLO 205 colon
HT29 colon = test system: HT29 colon
SF-268 CNS = test system: SF-268 CNS
UACC-62 melanoma = test system: UACC-62 melanoma
T-47D breast = test system: T-47D breast
MDA-MB-435 = test system: MDA-MB-435

Structure (SMILES) | TGI (KM12 colon) [µM] | TGI (SNB-19 CNS) [µM] | TGI (ACHN renal) [µM] | TGI (EKVX NSCLC) [µM] | TGI (COLO 205 colon) [µM] | TGI (HT29 colon) [µM] | TGI (SF-268 CNS) [µM] | TGI (UACC-62 melanoma) [µM] | TGI (T-47D breast) [µM] | TGI (MDA-MB-435) [µM]
N#COc1ccc(Oc2ccc(OC#N)cc2)cc1 | > 100 | > 100 | > 100 | > 100 | 54 | > 100 | > 100 | > 100 |  | 
COc1ccc(-c2nnc3n(C)c4ccccc4n3c2=O)cc1 | > 100 | > 100 | > 100 | > 100 | > 100 | > 100 | > 100 |  | > 100 | > 100
O=c1[nH]c2ccc(CC(=S)N3CCOCC3)cc2o1 | > 100 |  | > 100 | > 100 | > 100 | > 100 | > 100 | > 100 |  | > 100
NC(=O)/N=C/c1c(O)c2ccccc2oc1=O | > 100 | > 100 | > 100 | > 100 | > 100 | > 100 | > 100 | > 100 |  | 
O=C1c2cccnc2-c2nccc3c2c1nc1ccccc13 | 1.03 | 1.28 |  | 3.21 | 4.77 | 2.5 | 0.834 | 0.541 | 2.08 | 0.444
CC(C)C(C(=O)N(C)C(Cc1ccccc1)C(=O)N(C)C(C(=O)N(C)C(C(=O)N1CCCC1C(=O)OC(C)(C)C)C(C)C)C(C)C)N(C)C (centres undefined) (ξNMe2Val-[NMeF][NMeV][NMeV]P-OtBu; configuration not given here) | > 100 | > 100 | > 100 | > 100 | > 100 | > 100 | > 100 | > 100 |  | 
O=c1/c(=C/c2ccccn2)sc2nc3cc4c(cc3n12)OCCO4 | > 100 | > 100 | > 100 |  | > 100 | > 100 | > 100 | > 100 | > 100 | > 100
CCCCCCCCCCCC[N+]12CC[N+](C)(CC1)CC2 | 20.7 | 38.7 | > 100 | > 100 | 16.9 | 51.4 | 53.3 | > 100 |  | 
COc1cccc(OC)c1NC(=O)C(=O)Nn1c(NNC(=O)c2ccncc2)nc2ccccc2c1=O | > 100 | > 100 | > 100 | > 100 |  | > 100 | > 100 | > 100 | > 100 | > 100
CSC(C1c2ccccc2N(C)c2[nH]c(=O)n(C)c(=O)c21)S(=O)(=O)c1ccc(C)cc1 (centres undefined) |  | > 100 |  | > 100 | > 100 | > 100 | > 100 | > 100 |  | 
Cc1cc(O)c2c(c1)C(C1c3cccc(O)c3C(=O)c3c(O)cc(C)cc31)c1cccc(O)c1C2=O (centres undefined) | 4.29 | 17.1 | 3.56 | 4.15 | 0.378 | 7.62 | 14 |  | 2.98 | 10.7
CC#CCCCC1(C)CCNC1=S (centres undefined) | > 10 | > 10 | > 10 | > 10 |  | > 10 | > 10 |  |  | > 10
COC(=O)C(CCC1(C)OCCO1)=[N+]=[N-] | > 100 | > 100 | > 100 | > 100 | > 100 | > 100 | > 100 |  |  | 
NC(=S)N1N=C2c3ccccc3CCC[C@H]2[C@@H]1c1ccccc1 | 18.3 | 25.2 | 30.6 | 70.2 | 6.32 | 6.18 | 39.4 |  | 29.1 | 0.326
COc1ccc(-c2cc(-c3ccc(Nc4ccnc5cc(Cl)ccc45)cc3)[nH]c(=O)c2C#N)cc1 | > 100 | > 100 | > 100 | > 100 | > 100 |  | > 100 | > 100 | > 100 | > 100
O=C1Nc2ccc(Cl)c(I)c2C1=O | 76.3 | 80.5 | 30.7 | 20.8 | 35.1 | 75.9 | 32.6 | 34.8 |  | 
COc1ccc(NC(=O)C(=O)Cc2ccc([N+](=O)[O-])c([N+](=O)[O-])c2CC(=O)C(=O)Nc2ccc(OC)cc2OC)c(OC)c1 | > 100 | > 100 | > 100 | > 100 | > 100 | > 100 | > 100 | > 100 |  | 
